Results taken from ChEMBL document CHEMBL5532668, “Pitfalls and Considerations in Determining the Potency and Mutant Selectivity of Covalent Epidermal Growth Factor Receptor Inhibitors” (J Med Chem, 2024).

Columns and labels:
[1] = test system: Epidermal growth factor receptor (Homo sapiens), P00533 [L858R]
[2] = test system: Epidermal growth factor receptor (Homo sapiens), P00533 [L858R]; remark: listed apart in the source
[3] = test system: Epidermal growth factor receptor (Homo sapiens), P00533 [L858R,T790M]
Homo sapiens = organism: Homo sapiens; experiment: Selectivity ratio, ratio of Ki for human wild type EGFR to Ki for EGFR L858R mutant (unknown origin)
[4] = molecular target: Epidermal growth factor receptor (Homo sapiens, UniProt P00533, L858R); experiment: Binding affinity to EGFR L858R mutant (unknown origin) assessed as apparent inhibition constant in presence of ATP by TR-FRET assay; settings: read-out: Ki(app)
Epidermal growth factor receptor, sequence (P00533 25-1210 L858R limits assumed): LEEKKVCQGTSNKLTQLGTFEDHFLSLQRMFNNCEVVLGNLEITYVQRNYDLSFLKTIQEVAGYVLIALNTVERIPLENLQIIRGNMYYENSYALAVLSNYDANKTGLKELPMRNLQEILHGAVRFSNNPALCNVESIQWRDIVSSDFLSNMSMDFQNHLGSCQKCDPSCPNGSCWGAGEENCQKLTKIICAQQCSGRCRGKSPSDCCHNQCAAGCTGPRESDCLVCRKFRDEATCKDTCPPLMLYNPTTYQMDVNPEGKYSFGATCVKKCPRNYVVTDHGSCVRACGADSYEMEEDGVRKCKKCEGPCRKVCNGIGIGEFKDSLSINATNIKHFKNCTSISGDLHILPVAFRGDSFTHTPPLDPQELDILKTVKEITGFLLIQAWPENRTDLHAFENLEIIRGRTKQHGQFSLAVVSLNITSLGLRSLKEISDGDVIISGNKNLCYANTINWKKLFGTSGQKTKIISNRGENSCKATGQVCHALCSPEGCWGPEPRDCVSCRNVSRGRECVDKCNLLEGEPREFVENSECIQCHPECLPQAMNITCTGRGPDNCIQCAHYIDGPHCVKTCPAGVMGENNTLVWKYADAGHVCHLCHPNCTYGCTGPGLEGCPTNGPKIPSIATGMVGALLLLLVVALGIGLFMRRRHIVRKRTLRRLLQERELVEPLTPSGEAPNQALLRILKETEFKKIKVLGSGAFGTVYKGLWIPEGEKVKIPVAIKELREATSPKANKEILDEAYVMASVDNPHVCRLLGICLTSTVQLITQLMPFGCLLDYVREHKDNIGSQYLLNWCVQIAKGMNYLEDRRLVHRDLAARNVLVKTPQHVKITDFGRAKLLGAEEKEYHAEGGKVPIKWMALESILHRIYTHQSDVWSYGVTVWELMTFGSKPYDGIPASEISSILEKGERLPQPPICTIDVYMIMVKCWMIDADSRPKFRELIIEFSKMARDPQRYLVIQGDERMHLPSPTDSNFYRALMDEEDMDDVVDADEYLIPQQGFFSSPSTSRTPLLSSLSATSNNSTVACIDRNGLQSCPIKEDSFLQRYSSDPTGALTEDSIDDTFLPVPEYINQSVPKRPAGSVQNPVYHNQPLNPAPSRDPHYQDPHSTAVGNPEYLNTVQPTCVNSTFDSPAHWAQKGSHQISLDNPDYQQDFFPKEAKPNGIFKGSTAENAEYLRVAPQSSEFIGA

Epidermal growth factor receptor (Homo sapiens), P00533 [L858R], sequence (P00533 whole entry L858R): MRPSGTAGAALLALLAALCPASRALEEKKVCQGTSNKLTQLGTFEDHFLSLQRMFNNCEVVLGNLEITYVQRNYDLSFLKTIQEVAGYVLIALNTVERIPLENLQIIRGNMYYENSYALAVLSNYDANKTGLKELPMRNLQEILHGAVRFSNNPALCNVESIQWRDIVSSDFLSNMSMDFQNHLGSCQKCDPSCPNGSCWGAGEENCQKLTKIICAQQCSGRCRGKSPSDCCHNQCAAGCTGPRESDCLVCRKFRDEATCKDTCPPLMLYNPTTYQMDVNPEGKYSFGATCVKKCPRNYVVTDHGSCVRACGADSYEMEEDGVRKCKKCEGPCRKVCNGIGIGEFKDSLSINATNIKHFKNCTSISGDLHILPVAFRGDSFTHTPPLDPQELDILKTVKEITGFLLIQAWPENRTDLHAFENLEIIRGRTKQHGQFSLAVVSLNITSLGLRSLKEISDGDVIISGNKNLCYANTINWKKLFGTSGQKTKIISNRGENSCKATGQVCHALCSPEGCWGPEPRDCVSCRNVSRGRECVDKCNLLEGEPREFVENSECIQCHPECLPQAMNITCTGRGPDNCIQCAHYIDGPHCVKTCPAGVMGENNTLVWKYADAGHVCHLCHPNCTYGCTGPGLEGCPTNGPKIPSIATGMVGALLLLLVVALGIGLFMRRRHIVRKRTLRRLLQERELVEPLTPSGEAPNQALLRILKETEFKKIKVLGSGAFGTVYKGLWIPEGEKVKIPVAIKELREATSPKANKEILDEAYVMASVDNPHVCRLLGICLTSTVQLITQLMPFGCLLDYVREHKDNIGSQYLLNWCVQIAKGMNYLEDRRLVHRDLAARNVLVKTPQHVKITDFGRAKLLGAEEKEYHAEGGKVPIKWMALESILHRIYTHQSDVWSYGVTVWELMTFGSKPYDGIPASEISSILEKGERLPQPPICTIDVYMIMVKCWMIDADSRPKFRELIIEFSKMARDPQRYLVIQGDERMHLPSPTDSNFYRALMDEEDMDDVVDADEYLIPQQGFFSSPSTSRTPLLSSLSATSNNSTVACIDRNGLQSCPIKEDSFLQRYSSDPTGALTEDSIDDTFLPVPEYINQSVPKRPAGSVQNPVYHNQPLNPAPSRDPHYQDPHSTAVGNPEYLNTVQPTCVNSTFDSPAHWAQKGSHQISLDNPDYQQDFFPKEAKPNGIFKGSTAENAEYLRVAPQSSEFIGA
Epidermal growth factor receptor (Homo sapiens), P00533 [L858R,T790M], sequence (P00533 whole entry T790M/L858R, looked up): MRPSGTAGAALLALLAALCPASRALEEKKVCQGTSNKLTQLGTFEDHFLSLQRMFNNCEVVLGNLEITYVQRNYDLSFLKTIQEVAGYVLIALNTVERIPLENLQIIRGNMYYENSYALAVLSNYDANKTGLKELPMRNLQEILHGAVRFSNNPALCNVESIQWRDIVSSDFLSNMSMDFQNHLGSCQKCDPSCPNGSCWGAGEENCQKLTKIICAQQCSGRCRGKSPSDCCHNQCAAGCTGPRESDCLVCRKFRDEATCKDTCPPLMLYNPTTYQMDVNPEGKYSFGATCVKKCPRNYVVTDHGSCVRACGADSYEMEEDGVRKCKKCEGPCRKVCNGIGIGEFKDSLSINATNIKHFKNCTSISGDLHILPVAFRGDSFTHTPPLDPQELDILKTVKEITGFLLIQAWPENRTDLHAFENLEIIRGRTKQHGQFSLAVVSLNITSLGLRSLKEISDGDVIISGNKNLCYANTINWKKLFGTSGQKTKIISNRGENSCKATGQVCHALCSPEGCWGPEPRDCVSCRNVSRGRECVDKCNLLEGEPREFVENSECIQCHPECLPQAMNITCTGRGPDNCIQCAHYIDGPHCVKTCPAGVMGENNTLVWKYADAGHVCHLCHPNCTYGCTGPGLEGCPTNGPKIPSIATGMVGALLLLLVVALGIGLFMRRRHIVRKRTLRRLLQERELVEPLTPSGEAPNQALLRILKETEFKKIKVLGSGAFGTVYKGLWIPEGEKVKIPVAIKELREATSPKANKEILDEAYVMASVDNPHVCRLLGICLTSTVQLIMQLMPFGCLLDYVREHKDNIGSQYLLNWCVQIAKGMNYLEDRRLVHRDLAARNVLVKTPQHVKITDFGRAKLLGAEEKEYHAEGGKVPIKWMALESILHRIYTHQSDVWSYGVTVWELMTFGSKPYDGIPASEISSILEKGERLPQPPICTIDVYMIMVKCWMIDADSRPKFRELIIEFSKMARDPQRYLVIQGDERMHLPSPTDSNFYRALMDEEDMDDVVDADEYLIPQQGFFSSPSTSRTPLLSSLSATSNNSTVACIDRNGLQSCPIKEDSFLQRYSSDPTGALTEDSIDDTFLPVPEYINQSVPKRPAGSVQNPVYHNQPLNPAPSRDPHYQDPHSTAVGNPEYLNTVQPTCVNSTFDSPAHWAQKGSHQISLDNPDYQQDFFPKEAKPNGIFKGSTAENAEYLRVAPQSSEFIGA

Kinact [1]: 5.88 10^-3/s
Kinact [2]: 0.00971 s⁻¹
Kinact [3]: 3.92 10^-3/s
Ratio Ki (Homo sapiens): 0.358
Ki [4]: 4.68 nM
SMILES: C=CC(=O)Nc1cc(Nc2nccc(-n3cc(CN(C)C)c(-c4ccccc4)n3)n2)c(OC)cc1N1CCOCC1 [LAZERTINIB]
